Measured values taken from ChEMBL document CHEMBL1128061, “N-substituted glycines as replacements for proline in tripeptide aldehyde thrombin inhibitors” (Bioorg Med Chem Lett, 1995).
One block for each compound: values may come before it. Where a SMILES comes first, the peptide text is derived from it. [ ]: non-standard residue; d: D form. dPip = O=C(O)[C@H]1CCCCN1

Columns and labels:
[1] = target: Prothrombin (Homo sapiens) (UniProt P00734); assay: Association constant for thrombin
[2] = Ratio of association constant of thrombin and plasmin
[3] = target: Thrombin & trypsin (Homo sapiens) (UniProt P00734+P07477+P07478+P35030); assay: Ratio of association constant of thrombin and trypsin; format: protein assay
[4] = Ratio of association constant of thrombin and tissue-type plasminogen activator

Structure (SMILES): CN(CC(=O)N[C@H](C=O)CCCN=C(N)N)C(=O)[C@H]1CCCCN1
K ass [1]: 22 L/µM
Ratio [2]: 730
Ratio [3]: 24
Ratio [4]: 5500

Structure (SMILES): N=C(N)NCCC[C@@H](C=O)NC(=O)[C@@H]1CCCN1C(=O)[C@H]1CCCCN1 (H-[dPip]-Pro-Arg-aldehyde)
K ass [1]: 200 L/µM
Ratio [2]: 220
Ratio [3]: 3.3
Ratio [4]: 6700

Structure (SMILES): N=C(N)NCCC[C@@H](C=O)NC(=O)CN(CCCc1ccccc1)C(=O)[C@H]1CCCCN1
K ass [1]: 24 L/µM
Ratio [2]: 200
Ratio [3]: 4
Ratio [4]: 4000

Structure (SMILES): CCCN(CC(=O)N[C@H](C=O)CCCN=C(N)N)C(=O)[C@H]1CCCCN1
K ass [1]: 34 L/µM
Ratio [2]: 680
Ratio [3]: 14
Ratio [4]: 8500

Structure (SMILES): N=C(N)NCCC[C@@H](C=O)NC(=O)CN(CCC1CCCCC1)C(=O)[C@H]1CCCCN1
K ass [1]: 5.4 L/µM
Ratio [2]: 16
Ratio [3]: 0.9
Ratio [4]: 770

Structure (SMILES): N=C(N)NCCC[C@@H](C=O)NC(=O)CN(Cc1ccccc1)C(=O)[C@H]1CCCCN1
K ass [1]: 10 L/µM
Ratio [2]: 77
Ratio [3]: 1
Ratio [4]: 1000

Structure (SMILES): N=C(N)NCCC[C@@H](C=O)NC(=O)CN(CCc1ccccc1)C(=O)[C@H]1CCCCN1
K ass [1]: 87 L/µM
Ratio [2]: 200
Ratio [3]: 32
Ratio [4]: 14500

Structure (SMILES): N=C(N)NCCC[C@@H](C=O)NC(=O)CN(C(=O)[C@H]1CCCCN1)c1ccccc1
K ass [1]: 16 L/µM
Ratio [2]: 400
Ratio [3]: 15
Ratio [4]: 4000

The remaining lines, values ahead:

K ass [1]: 24 L/µM
Ratio [2]: 480
Ratio [3]: 15
Ratio [4]: 24000
Structure (SMILES): CC(C)CN(CC(=O)N[C@H](C=O)CCCN=C(N)N)C(=O)[C@H]1CCCCN1

K ass [1]: 10 L/µM
Ratio [2]: 10000
Ratio [3]: 20
Ratio [4]: 10000
Structure (SMILES): CC(C)N(CC(=O)N[C@H](C=O)CCCN=C(N)N)C(=O)[C@H]1CCCCN1

K ass [1]: 16 L/µM
Ratio [2]: 270
Ratio [3]: 2.7
Ratio [4]: 4000
Structure (SMILES): CC(C)CCN(CC(=O)N[C@H](C=O)CCCN=C(N)N)C(=O)[C@H]1CCCCN1

K ass [1]: 33 L/µM
Ratio [2]: 3300
Ratio [3]: 25
Ratio [4]: 6600
Structure (SMILES): CCN(CC(=O)N[C@H](C=O)CCCN=C(N)N)C(=O)[C@H]1CCCCN1
